# Measurements reported in ChEMBL document CHEMBL3608282 (Bioorg Med Chem Lett, 2015).
# Assays:
# [1] = test system: Hepatitis C virus; test: Antiviral activity against HCV genotype 1a; format: functional, organism-based, Hepacivirus hominis; conditions: subtype 1a
# [2] = Cytotoxicity against human HuH7 cells; format: cell-based; conditions: huh-7
# [3] = test system: Hepatitis C virus; test: Antiviral activity against wild type HCV genotype 1b infected in human HuH7 cells assessed as reduction in viral RNA replication; format: functional, organism-based, Hepacivirus hominis; conditions: Huh-7
# [4] = test system: Hepatitis C virus; test: Antiviral activity against HCV genotype 1b expressing NS5A Y93H mutant infected in human HuH7 cells assessed as reduction in viral RNA replication; format: functional, organism-based, Hepacivirus hominis; conditions: Huh-7
# [5] = test system: Hepatitis C virus; test: Antiviral activity against HCV genotype 2a; format: functional, organism-based, Hepacivirus hominis
# [6] = test system: Hepatitis C virus; test: Antiviral activity against HCV genotype 1b infected in human HuH7 cells assessed as reduction in viral RNA replication; format: functional, organism-based, Hepacivirus hominis; conditions: Huh-7
# [7] = test system: Hepatitis C virus; test: Antiviral activity against HCV genotype 1b expressing NS5A L31V mutant infected in human HuH7 cells assessed as reduction in viral RNA replication; format: functional, organism-based, Hepacivirus hominis; conditions: Huh-7
# [8] = Therapeutic index, ratio of CC50 for african green monkey Vero cells to EC50 for HCV genotype 1b; format: cell-based; conditions: Vero cells (CC50) versus HCV genotype 1b (EC50)
# [9] = test system: PBMC; test: Cytotoxicity against PBMC (unknown origin); format: cell-based
# [10] = test system: Vero; test: Cytotoxicity against african green monkey Vero cells; format: cell-based; conditions: chlorocebus sabaeus
# [11] = Therapeutic index, ratio of CC50 for human HuH7 cells to EC50 for HCV genotype 1b; format: cell-based, Huh-7; conditions: HuH7 cells (CC50) versus HCV genotype 1b (EC50)
# [12] = Therapeutic index, ratio of CC50 for PBMC (unknown origin) to EC50 for HCV genotype 1b; conditions: PBMC (CC50) versus HCV genotype 1b (EC50)
# [13] = test system: CCRF-CEM; test: Cytotoxicity against human CEM cells; format: cell-based
# [14] = Therapeutic index, ratio of CC50 for human CEM cells to EC50 for HCV genotype 1b; format: cell-based, CCRF-CEM; conditions: CEM cells (CC50) versus HCV genotype 1b (EC50)
# [15] = test system: Hepatitis C virus; test: Resistance index, ratio of EC50 for HCV genotype 1b expressing NS5A L31V mutant infected in human HuH7 cells to EC50 for wild type HCV genotype 1b infected in human HuH7 cells; format: functional, Hepacivirus hominis, Huh-7
smiles,measurement,setting,value
COC(=O)N[C@H](C(=O)N1CCC[C@H]1c1nc(-c2ccc(-c3ccc(-c4c[nH]c([C@@H]5CCCN5C(=O)[C@@H](NC(=O)OC)C(C)C)n4)cc3)cc2)c[nH]1)C(C)C,EC50,[1],0.048 nM
same,CC50,[2],> 15000 nM
same,EC50,[3],0.048 nM
same,EC50,[4],0.18 nM
same,EC50,[5],0.024 nM
same,EC50,[6],0.004 nM
same,EC90,[6],0.02 nM
same,EC50,[7],0.035 nM
COC(=O)N[C@@H](CSC)C(=O)N1CCC[C@H]1c1ncc(-c2ccc(-c3ccc(-c4cnc([C@@H]5CCCN5C(=O)[C@@H](NC(=O)OC)C(C)C)[nH]4)cc3)cc2)[nH]1,selectivity ratio,[8],> 1e+06
same,CC50,[9],31000 nM
same,CC50,[10],18000 nM
same,selectivity ratio,[11],> 1e+06
same,selectivity ratio,[12],> 1e+06
same,EC50,[6],0.061 nM
same,EC90,[6],0.1 nM
same,CC50,[13],11000 nM
same,selectivity ratio,[14],> 1e+06
COC(=O)N[C@@H](CSC(C)(C)C)C(=O)N1CCC[C@H]1c1ncc(-c2ccc(-c3ccc(-c4cnc([C@@H]5CCCN5C(=O)[C@@H](NC(=O)OC)C(C)C)[nH]4)cc3)cc2)[nH]1,selectivity ratio,[8],> 1e+06
same,EC50,[1],0.14 nM
same,CC50,[2],> 330000 nM
same,CC50,[9],18000 nM
same,EC50,[3],0.14 nM
same,CC50,[10],39000 nM
same,selectivity ratio,[11],> 1e+06
same,EC50,[4],≥ 0.33 nM
same,selectivity ratio,[12],> 1e+06
same,EC50,[5],0.055 nM
same,EC50,[6],0.03 nM
same,EC90,[6],0.1 nM
same,CC50,[13],10000 nM
same,selectivity ratio,[14],> 1e+06
same,EC50,[7],0.072 nM
COC(=O)N[C@@H](CSCc1ccccc1)C(=O)N1CCC[C@H]1c1ncc(-c2ccc(-c3ccc(-c4cnc([C@@H]5CCCN5C(=O)[C@@H](NC(=O)OC)C(C)C)[nH]4)cc3)cc2)[nH]1,selectivity ratio,[8],> 1e+06
same,EC50,[1],0.1 nM
same,CC50,[2],> 330000 nM
same,CC50,[9],> 100000 nM
same,EC50,[3],0.1 nM
same,CC50,[10],> 100000 nM
same,selectivity ratio,[11],> 1e+06
same,EC50,[4],> 0.33 nM
same,Ratio EC50,[15],>3
same,selectivity ratio,[12],> 1e+06
same,EC50,[5],0.039 nM
same,EC50,[6],0.02 nM
same,EC90,[6],0.032 nM
same,CC50,[13],82000 nM
same,selectivity ratio,[14],> 1e+06
same,EC50,[7],0.39 nM
COC(=O)N[C@@H](CCSC)C(=O)N1CCC[C@H]1c1ncc(-c2ccc(-c3ccc(-c4cnc([C@@H]5CCCN5C(=O)[C@@H](NC(=O)OC)C(C)C)[nH]4)cc3)cc2)[nH]1,selectivity ratio,[8],> 1e+06
same,EC50,[1],0.059 nM
same,CC50,[2],> 330000 nM
same,CC50,[9],41000 nM
same,EC50,[3],0.059 nM
same,CC50,[10],40000 nM
same,selectivity ratio,[11],> 1e+06
same,EC50,[4],> 0.11 nM
same,selectivity ratio,[12],> 1e+06
same,EC50,[5],0.027 nM
same,EC50,[6],0.03 nM
same,EC90,[6],0.1 nM
same,CC50,[13],11000 nM
same,selectivity ratio,[14],> 1e+06
same,EC50,[7],0.05 nM
COC(=O)N[C@@H](C[S+]([O-])Cc1ccccc1)C(=O)N1CCC[C@H]1c1ncc(-c2ccc(-c3ccc(-c4cnc([C@@H]5CCCN5C(=O)[C@@H](NC(=O)OC)C(C)C)[nH]4)cc3)cc2)[nH]1 (stereo partly specified),selectivity ratio,[8],> 1e+06
same,CC50,[9],42000 nM
same,CC50,[10],11000 nM
same,selectivity ratio,[11],> 1e+06
same,selectivity ratio,[12],> 1e+06
same,EC50,[6],0.1 nM
same,EC90,[6],0.3 nM
same,CC50,[13],11000 nM
same,selectivity ratio,[14],> 1e+06
COC(=O)N[C@@H](CS(=O)(=O)Cc1ccccc1)C(=O)N1CCC[C@H]1c1ncc(-c2ccc(-c3ccc(-c4cnc([C@@H]5CCCN5C(=O)[C@@H](NC(=O)OC)C(C)C)[nH]4)cc3)cc2)[nH]1,selectivity ratio,[8],> 1e+06
same,CC50,[9],21000 nM
same,CC50,[10],> 100000 nM
same,selectivity ratio,[11],> 1e+06
same,selectivity ratio,[12],> 1e+06
same,EC50,[6],0.02 nM
same,EC90,[6],0.1 nM
same,CC50,[13],> 100000 nM
same,selectivity ratio,[14],> 1e+06
